Source: patent publication US20240391948A1, “NOVEL COMPOUND THAT INHIBITS TNF-ALPHA GENERATION AND INFLAMMASOME ACTIVITY AND PREPARATION METHOD THEREFOR” (SHAPERON INC., priority 2021, published 2024)

Columns and labels:
Assay type in all cases: cell-based
[1] = system: J774A.1 (Mouse BALB/c monocyte macrophage cell line) cells; test: LPS-induced TNF-α secretion inhibition in J774A.1 cells; details: J774.A1, 1 μM compound, graded compared to taurodeoxycholic acid (positive control), read-out: TNF-α production inhibition grade
Procedure: (§1) To evaluate anti-inflammatory efficacy, an inflammatory response was induced in J774A.1 (Mouse BALB/c monocyte macrophage cell line) cells derived from mouse macrophages by LPS (lipopolysaccharide) and LPS+ATP (adenosine triphosphate), and the efficacy of taurine-bile acid derivatives to inhibit the production of inflammatory cytokines (IL-1β, TNF-α) was measured. After treating J774A.1 cells with 1 μM of a taurine-bile acid derivative, the degree to which the secretion of TNF-α among cytokines was suppressed was measured in the experimental group in which an inflammatory response was induced by LPS, and the extent to which IL-1β secretion among cytokines was suppressed was measured in the experimental group in which an inflammatory response was induced with LPS+ATP. The ability of taurine-bile acid derivatives to inhibit cytokine production was graded compared to taurodeoxycholic acid, a positive control. The grading criteria are A: over 100%, B: over 50% and under 100%, C: between 20% and under 50%, and D: under 20%.

[2] = system: J774A.1 (Mouse BALB/c monocyte macrophage cell line) cells; test: LPS+ATP-induced IL-1β secretion inhibition in J774A.1 cells; details: J774.A1, 1 μM compound, graded compared to taurodeoxycholic acid (positive control), read-out: IL-1β production inhibition grade
Procedure: as §1

[3] = system: U937 cells (human monocytic cell line); test: Pam2CSK4-induced TNF-α secretion inhibition in PMA-differentiated U937 cells; details: U-937, U937 cells differentiated with PMA, read-out: TNF-α production inhibition grade (IC50)
Procedure: (§2) To evaluate anti-inflammatory efficacy, U937 cells (human monocytic cell line) were differentiated into macrophages using PMA (phorbol 12-myristate 13-acetate) and then induced an inflammatory response with Pam2CSK4 (Pam2CysSerLys4) or BzATP (2′(3′)—O-(4-Benzoylbenzoyl)adenosine 5′-triphosphate), the efficacy of taurine-bile acid derivatives in suppressing inflammatory cytokine (IL-1β, TNF-α) production was measured.
(§3) Using PMA, U937 cells were differentiated into macrophages, and the extent of TNF-α secretion inhibition was measured in an experimental group where taurine-bile acid derivatives was treated, followed by induction of inflammatory response with Pam2CSK4, and in the experimental group in which an inflammatory response was induced with BzATP, the extent to which IL-1β secretion among cytokines was suppressed was measured.
(§4) The ability of taurine-bile acid derivatives to inhibit cytokine production was expressed in terms of IC50 (μM) values. The standards for TNF α inhibition ability are A: less than 0.5, B: 0.5 to less than 1.0, C: 1.0 to less than 2.0, D: 2.0 or more, and the IL-1β inhibition ability grade standards are A: less than 0.05, B: 0.05 to less than 0.10, C: 0.10 or more and less than 0.20, D: 0.20 or more.

[4] = system: U937 cells (human monocytic cell line); test: BzATP-induced IL-1β secretion inhibition in PMA-differentiated U937 cells; details: U-937, U937 cells differentiated with PMA, read-out: IL-1β production inhibition grade (IC50)
Procedure: as §2, §3, §4

Compound	inhibition at 1 µM [1] [%]	inhibition at 1 µM [2] [%]	IC50 [3] [nM]	IC50 [4] [nM]
C[C@H](CCC(=O)N1CC[C@@H](S(=O)(=O)O)C1)[C@H]1CC[C@H]2[C@@H]3[C@H](O)C[C@@H]4C[C@H](O)CC[C@]4(C)[C@H]3C[C@H](O)[C@]12C [NC20034]	< 20	< 20	1000 to 2000	50 to 100
C[C@H](CCC(=O)NC1(CS(=O)(=O)O)CC1)[C@H]1CC[C@H]2[C@@H]3CC[C@@H]4C[C@H](O)CC[C@]4(C)[C@H]3CC[C@]12C [NC10088]	20 to 50	< 20	< 500	≥ 200
C[C@H](CCC(=O)N[C@H](Cc1ccccc1)CS(=O)(=O)O)[C@H]1CC[C@H]2[C@@H]3CC[C@@H]4CC(=O)CC[C@]4(C)[C@H]3CC[C@]12C [NC30015]	< 20	< 20	< 500	≥ 200
CC[C@H]1[C@@H](O)[C@@H]2[C@H](CC[C@]3(C)[C@@H]([C@H](C)CCC(=O)N4CCC[C@@H]4CS(=O)(=O)O)CC[C@@H]23)[C@@]2(C)CC[C@@H](O)C[C@@H]12 [NC40020]	< 20	> 100	1000 to 2000	100 to 200
C[C@H](CCC(=O)N(CCS(=O)(=O)O)c1ccccc1)[C@H]1CC[C@H]2[C@@H]3[C@H](O)C[C@@H]4C[C@H](O)CC[C@]4(C)[C@H]3C[C@H](O)[C@]12C [NC20037]	< 20	50 to 100	< 500	< 50
CC(C)C[C@@H](CS(=O)(=O)O)NC(=O)CC[C@@H](C)[C@H]1CC[C@H]2[C@@H]3CC[C@@H]4CC(=O)CC[C@]4(C)[C@H]3CC[C@]12C [NC30030]	< 20	20 to 50	500 to 1000	≥ 200
C[C@H](CCC(=O)N[C@@H]1CCCC[C@@H]1S(=O)(=O)O)[C@H]1CC[C@H]2[C@@H]3CC[C@@H]4C[C@H](O)CC[C@]4(C)[C@H]3C[C@H](O)[C@]12C [NC10041]	< 20	< 20	500 to 1000	≥ 200
C[C@H](CCC(=O)N(CCS(=O)(=O)O)C1CCOCC1)[C@H]1CC[C@H]2[C@@H]3[C@H](O)C[C@@H]4C[C@H](O)CC[C@]4(C)[C@H]3C[C@H](O)[C@]12C [NC20008]	< 20	> 100	500 to 1000	50 to 100
C[C@H](CCC(=O)N1CC[C@H](S(=O)(=O)O)C1)[C@H]1CC[C@H]2[C@@H]3CC[C@@H]4C[C@H](O)CC[C@]4(C)[C@H]3C[C@H](O)[C@]12C [NC10048]	< 20	50 to 100	< 500	50 to 100
CC(C)[C@H](CS(=O)(=O)O)NC(=O)CC[C@@H](C)[C@H]1CC[C@H]2[C@@H]3[C@H](O)C[C@@H]4C[C@H](O)CC[C@]4(C)[C@H]3C[C@H](O)[C@]12C [NC20017]	< 20	50 to 100	< 500	≥ 200
C[C@H](CCC(=O)N[C@H](Cc1ccccc1)CS(=O)(=O)O)[C@H]1CC[C@H]2[C@@H]3CC[C@@H]4C[C@H](O)CC[C@]4(C)[C@H]3CC[C@]12C [NC10066]	< 20	> 100	1000 to 2000	< 50
C[C@H](CCC(=O)N1CCC[C@H](S(=O)(=O)O)C1)[C@H]1CC[C@H]2[C@@H]3CC[C@@H]4C[C@H](O)CC[C@]4(C)[C@H]3CC[C@]12C [NC10060]	< 20	50 to 100	≥ 2000	≥ 200
C[C@H](CCC(=O)NCCCS(=O)(=O)O)[C@H]1CC[C@H]2[C@@H]3CC[C@@H]4C[C@H](O)CC[C@]4(C)[C@H]3CC[C@]12C [NC10014]	< 20	< 20	1000 to 2000	< 50
C[C@H](CCC(=O)N1CCC[C@@H]1CS(=O)(=O)O)[C@H]1CC[C@H]2[C@@H]3[C@H](O)C[C@@H]4C[C@H](O)CC[C@]4(C)[C@H]3C[C@H](O)[C@]12C [NC20020]	50 to 100	20 to 50	≥ 2000	< 50
C[C@H](CCC(=O)N1CCC(CCS(=O)(=O)O)CC1)[C@H]1CC[C@H]2[C@@H]3CC[C@@H]4C[C@H](O)CC[C@]4(C)[C@H]3CC[C@]12C [NC10012]	> 100	> 100	< 500	< 50
C[C@H](CCC(=O)NC[C@H](C)S(=O)(=O)O)[C@H]1CC[C@H]2[C@@H]3CC[C@@H]4C[C@H](O)CC[C@]4(C)[C@H]3C[C@H](O)[C@]12C [NC10038]	< 20	50 to 100	≥ 2000	50 to 100
C[C@H](CCC(=O)NC[C@H](C)S(=O)(=O)O)[C@H]1CC[C@H]2[C@@H]3[C@H](O)C[C@@H]4C[C@H](O)CC[C@]4(C)[C@H]3C[C@H](O)[C@]12C [NC20022]	< 20	< 20	1000 to 2000	< 50
C[C@H](CCC(=O)N1CC[C@H](S(=O)(=O)O)C1)[C@H]1CC[C@H]2[C@@H]3CC[C@@H]4C[C@H](O)CC[C@]4(C)[C@H]3CC[C@]12C [NC10089]	< 20	20 to 50	< 500	≥ 200
C[C@H](CCC(=O)NCCOS(=O)(=O)O)[C@H]1CC[C@H]2[C@@H]3CC[C@@H]4C[C@H](O)CC[C@]4(C)[C@H]3CC[C@]12C [NC10013]	< 20	50 to 100	500 to 1000	50 to 100
C[C@H](CCC(=O)N[C@H](Cc1ccccc1)CS(=O)(=O)O)[C@H]1CC[C@H]2[C@@H]3[C@H](O)C[C@@H]4C[C@H](O)CC[C@]4(C)[C@H]3C[C@H](O)[C@]12C [NC20015]	< 20	> 100	< 500	< 50
C[C@H](CCC(=O)N[C@@H](Cc1ccccc1)CS(=O)(=O)O)[C@H]1CC[C@H]2[C@@H]3[C@H](O)C[C@@H]4C[C@H](O)CC[C@]4(C)[C@H]3C[C@H](O)[C@]12C [NC20014]	< 20	> 100	500 to 1000	< 50
C[C@H](CCC(=O)N(CCS(=O)(=O)O)CC(N)=O)[C@H]1CC[C@H]2[C@@H]3CC[C@@H]4C[C@H](O)CC[C@]4(C)[C@H]3C[C@H](O)[C@]12C [NC10005]	< 20	20 to 50	1000 to 2000	100 to 200
CC(C)[C@@H](CS(=O)(=O)O)NC(=O)CC[C@@H](C)[C@H]1CC[C@H]2[C@@H]3CC[C@@H]4C[C@H](O)CC[C@]4(C)[C@H]3CC[C@]12C [NC10067]	< 20	< 20	1000 to 2000	≥ 200
C[C@H](CCC(=O)N[C@H](Cc1ccccc1)CS(=O)(=O)O)[C@H]1CC[C@H]2[C@@H]3CC[C@@H]4C[C@H](O)CC[C@]4(C)[C@H]3C[C@H](O)[C@]12C [NC10031]	< 20	< 20	≥ 2000	50 to 100
C[C@H](CCC(=O)N(C)CCS(=O)(=O)O)[C@H]1CC[C@H]2[C@@H]3CC[C@@H]4C[C@H](O)CC[C@]4(C)[C@H]3C[C@H](O)[C@]12C [NC10006]	< 20	50 to 100	500 to 1000	≥ 200
CC[C@H]1[C@@H](O)[C@@H]2[C@H](CC[C@]3(C)[C@@H]([C@H](C)CCC(=O)NC[C@@H](C)S(=O)(=O)O)CC[C@@H]23)[C@@]2(C)CC[C@@H](O)C[C@@H]12 [NC40023]	< 20	< 20	500 to 1000	≥ 200
